Data taken from patent publication US20240246967A1, “AXL COMPOUNDS” (ARCUS BIOSCIENCES, INC., priority 2021, published 2024).

Columns and labels:
Axl [1] = molecular target: T1, Axl (Homo sapiens, UniProt P30530); test: HTRF KinEASE-TK biochemical potency assay, AXL; set-up: purchased Invitrogen; conditions: 5 nM AXL, 700 μM ATP, 800 nM TK Substrate-biotin
T1 sequence (P30530 26-894): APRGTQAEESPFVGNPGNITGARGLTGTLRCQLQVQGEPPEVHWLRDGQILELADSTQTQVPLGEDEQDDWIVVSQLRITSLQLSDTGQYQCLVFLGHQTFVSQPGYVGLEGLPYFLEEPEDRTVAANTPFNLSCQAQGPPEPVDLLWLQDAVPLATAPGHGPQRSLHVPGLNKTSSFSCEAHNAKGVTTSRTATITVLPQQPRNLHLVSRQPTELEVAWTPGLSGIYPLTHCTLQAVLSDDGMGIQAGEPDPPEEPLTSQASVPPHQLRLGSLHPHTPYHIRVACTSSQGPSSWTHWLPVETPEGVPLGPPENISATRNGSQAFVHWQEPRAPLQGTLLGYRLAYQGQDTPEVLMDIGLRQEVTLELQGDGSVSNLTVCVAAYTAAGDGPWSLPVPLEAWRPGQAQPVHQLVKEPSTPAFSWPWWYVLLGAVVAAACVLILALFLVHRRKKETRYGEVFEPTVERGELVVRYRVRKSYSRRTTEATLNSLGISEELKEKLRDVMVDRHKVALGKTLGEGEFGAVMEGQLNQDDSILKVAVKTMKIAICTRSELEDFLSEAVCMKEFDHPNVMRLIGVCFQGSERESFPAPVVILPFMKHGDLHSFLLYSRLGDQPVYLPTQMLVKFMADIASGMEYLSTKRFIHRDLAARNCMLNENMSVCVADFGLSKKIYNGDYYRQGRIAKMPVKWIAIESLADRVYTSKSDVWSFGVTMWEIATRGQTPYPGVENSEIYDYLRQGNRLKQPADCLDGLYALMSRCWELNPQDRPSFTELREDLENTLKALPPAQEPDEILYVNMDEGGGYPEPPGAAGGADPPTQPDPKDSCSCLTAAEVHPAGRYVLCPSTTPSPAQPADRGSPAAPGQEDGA
Method in brief: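 Recombinant human kinase preincubated 1 h at RT with compound, then reacted 2 h at RT with 800 nM biotin-TK substrate and 700 μM ATP (final; 5 nM AXL, 1 nM TYRO3 or MER) in HEPES pH 7.4, MgCl2, BSA, DTT, 1% DMSO. HTRF 665/620 ratio read; percent activity versus DMSO and pre-quenched controls.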

Axl [2] = molecular target: T1, Axl; test: Axl NanoBRET intracellular kinase assay (intracellular binding, Cell Binding); set-up: host or cells: HEK-293; conditions: HEK-293 cells transfected with Axl-NanoLuc fusion vector; 0.35 μM K-5 NanoBRET tracer
Method in brief: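 Intracellular binding measured as loss of BRET (610 nm/450 nm) when compounds displace 0.35 μM K-5 tracer from Axl-NanoLuc in transfected HEK-293 cells.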

SMILES	IC50 (Axl [1])	IC50 (Axl [2])
C[C@@H]1CCCN1C1(C)CCc2ccc(-c3cnc4[nH]nc(-c5ccc(S(=O)(=O)C6CC6)cc5)c4c3)cc2CC1 (stereo partly drawn) [Example 1, 3-(4-(Cyclopropylsulfonyl)phenyl)-5-(7-methyl-7-((R)-2-methylpyrrolidin-1-yl)-6,7,8,9-tetrahydro-5H-benzo[7]annulen-2-yl)-1H-pyrazolo[3,4-b]pyridine]	< 100 nM	< 100 nM
CC1(N2CCOCC2)CCc2ccc(-c3cnc4[nH]nc(-c5ccc(S(=O)(=O)C6CC6)cc5)c4c3)cc2CC1 (stereo not drawn) [Example 2, 4-(2-{3-[4-(Cyclopropanesulfonyl)phenyl]-1H-pyrazolo[3,4-b]pyridin-5-yl}-7-methyl-6,7,8,9-tetrahydro-5H-benzo[7]annulen-7-yl)morpholine]	> 1000 nM	> 1000 nM
CC1(N2CCC[C@@H]2CO)CCc2ccc(-c3cnc4[nH]nc(-c5ccc(S(=O)(=O)C6CC6)cc5)c4c3)cc2CC1 (stereo partly drawn) [Example 3, [(2R)-1-(2-{3-[4-(Cyclopropanesulfonyl)phenyl]-1H-pyrazolo[3,4-b]pyridin-5-yl}-7-methyl-6,7,8,9-tetrahydro-5H-benzo[7]annulen-7-yl)pyrrolidin-2-yl]methanol]	< 100 nM	< 100 nM
C[C@@H]1CCCN1C1CCc2ccc(-c3cnc4[nH]nc(-c5ccc(C6(O)CCOC6)c(Cl)c5)c4c3)cc2CC1 (stereo partly drawn) [Example 63, 3-[2-Chloro-4-(5-{7-[(2R)-2-methylpyrrolidin-1-yl]-6,7,8,9-tetrahydro-5H-benzo[7]annulen-2-yl}-1H-pyrazolo[3,4-b]pyridin-3-yl)phenyl]oxolan-3-ol]	< 100 nM	< 100 nM
C[C@@H]1CCCN1C1CCc2ccc(-c3cnc4[nH]nc(-c5ccc(C6(O)COC6)c(Cl)c5)c4c3)cc2CC1 (stereo partly drawn) [Example 64, 3-[2-Chloro-4-(5-{7-[(2R)-2-methylpyrrolidin-1-yl]-6,7,8,9-tetrahydro-5H-benzo[7]annulen-2-yl}-1H-pyrazolo[3,4-b]pyridin-3-yl)phenyl]oxetan-3-ol]	< 100 nM	> 1000 nM
C[C@@H]1CCCN1C1CCc2ccc(-c3cnc4[nH]nc(-c5cnc(C(C)(C)O)c(Cl)c5)c4c3)cc2CC1 (stereo partly drawn) [Example 65, 2-[3-Chloro-5-(5-{7-[(2R)-2-methylpyrrolidin-1-yl]-6,7,8,9-tetrahydro-5H-benzo[7]annulen-2-yl}-1H-pyrazolo[3,4-b]pyridin-3-yl)pyridin-2-yl]propan-2-ol]	< 100 nM	< 100 nM
COC1CCN(C(=O)c2ccc(-c3n[nH]c4ncc(-c5ccc6c(c5)CC[C@@H](N5CCCC5)CC6)cc34)cc2Cl)CC1 [Example 66, (S)-(2-Chloro-4-(5-(7-(pyrrolidin-1-yl)-6,7,8,9-tetrahydro-5H-benzo[7]annulen-2-yl)-1H-pyrazolo[3,4-b]pyridin-3-yl)phenyl)(4-methoxypiperidin-1-yl)methanone]	< 100 nM	< 100 nM
COC1CCN(C(=O)c2ccc(-c3n[nH]c4ncc(-c5ccc6c(c5)CCC(C)(N5CCC[C@H]5C)CC6)cc34)cc2Cl)CC1 (stereo partly drawn) [Example 67, 1-[2-Chloro-4-(5-{7-methyl-7-[(2R)-2-methylpyrrolidin-1-yl]-6,7,8,9-tetrahydro-5H-benzo[7]annulen-2-yl}-1H-pyrazolo[3,4-b]pyridin-3-yl)benzoyl]-4-methoxypiperidine]	< 100 nM	< 100 nM
C[C@@H]1CCCN1C1(C)CCc2ccc(-c3cnc4[nH]nc(-c5ccc(C(N)=O)c(Cl)c5)c4c3)cc2CC1 (stereo partly drawn) [Example 68, 2-Chloro-4-(5-{7-methyl-7-[(2R)-2-methylpyrrolidin-1-yl]-6,7,8,9-tetrahydro-5H-benzo[7]annulen-2-yl}-1H-pyrazolo[3,4-b]pyridin-3-yl)benzamide]	< 100 nM	< 100 nM
C[C@@H]1CCCN1C1(C)CCc2ccc(-c3cnc4[nH]nc(-c5ccc(C(=O)NC6CC6)cc5)c4c3)cc2CC1 (stereo partly drawn) [Example 69, N-Cyclopropyl-4-(5-{7-methyl-7-[(2R)-2-methylpyrrolidin-1-yl]-6,7,8,9-tetrahydro-5H-benzo[7]annulen-2-yl}-1H-pyrazolo[3,4-b]pyridin-3-yl)benzamide]	< 100 nM	< 100 nM
CC(C)NC(=O)c1ccc(-c2n[nH]c3ncc(-c4ccc5c(c4)CCC(C)(N4CCC[C@H]4C)CC5)cc23)cc1 (stereo partly drawn) [Example 70, 4-(5-{7-Methyl-7-[(2R)-2-methylpyrrolidin-1-yl]-6,7,8,9-tetrahydro-5H-benzo[7]annulen-2-yl}-1H-pyrazolo[3,4-b]pyridin-3-yl)-N-(propan-2-yl)benzamide]	< 100 nM	< 100 nM
COCCNC(=O)c1ccc(-c2n[nH]c3ncc(-c4ccc5c(c4)CCC(C)(N4CCC[C@H]4C)CC5)cc23)cc1 (stereo partly drawn) [Example 72, N-(2-Methoxyethyl)-4-(5-{7-methyl-7-[(2R)-2-methylpyrrolidin-1-yl]-6,7,8,9-tetrahydro-5H-benzo[7]annulen-2-yl}-1H-pyrazolo[3,4-b]pyridin-3-yl)benzamide]	< 100 nM	< 100 nM
CCC1(N2CCC[C@H]2C)CCc2ccc(-c3cnc4[nH]nc(-c5ccc(C(N)=O)c(Cl)c5)c4c3)cc2CC1 (stereo partly drawn) [Example 73, 2-Chloro-4-(5-{7-ethyl-7-[(2R)-2-methylpyrrolidin-1-yl]-6,7,8,9-tetrahydro-5H-benzo[7]annulen-2-yl}-1H-pyrazolo[3,4-b]pyridin-3-yl)benzamide]	< 100 nM	< 100 nM

More lines, now with the values ahead:

IC50 (Axl [1])	IC50 (Axl [2])	SMILES
< 100 nM	< 100 nM	CCC1(N2CCC[C@@H]2CO)CCc2ccc(-c3cnc4[nH]nc(-c5ccc(C(N)=O)c(Cl)c5)c4c3)cc2CC1 (stereo partly drawn) [Example 74, 2-Chloro-4-(5-{7-ethyl-7-[(2R)-2-(hydroxymethyl)pyrrolidin-1-yl]-6,7,8,9-tetrahydro-5H-benzo[7]annulen-2-yl}-1H-pyrazolo[3,4-b]pyridin-3-yl)benzamide]
< 100 nM	< 100 nM	CCC1(N2CCC[C@H]2CO)CCc2ccc(-c3cnc4[nH]nc(-c5ccc(C(N)=O)c(Cl)c5)c4c3)cc2CC1 (stereo partly drawn) [Example 75, 2-Chloro-4-(5-{7-ethyl-7-[(2S)-2-(hydroxymethyl)pyrrolidin-1-yl]-6,7,8,9-tetrahydro-5H-benzo[7]annulen-2-yl}-1H-pyrazolo[3,4-b]pyridin-3-yl)benzamide]
< 100 nM	< 100 nM	C[C@@H]1CCCN1C1(C)CCc2ccc(-c3cnc4[nH]nc(-c5ccc(C(=O)N6CCC6)cc5)c4c3)cc2CC1 (stereo partly drawn) [Example 76, (2R)-1-(2-{3-[4-(Azetidine-1-carbonyl)phenyl]-1H-pyrazolo[3,4-b]pyridin-5-yl}-7-methyl-6,7,8,9-tetrahydro-5H-benzo[7]annulen-7-yl)-2-methylpyrrolidine]
< 100 nM	< 100 nM	NC(=O)c1ccc(-c2n[nH]c3ncc(-c4ccc5c(c4)CCC(N4CCCC4)CC5)cc23)cc1Cl (stereo not drawn) [Example 77, 2-Chloro-4-(5-(7-(pyrrolidin-1-yl)-6,7,8,9-tetrahydro-5H-benzo[7]annulen-2-yl)-1H-pyrazolo[3,4-b]pyridin-3-yl)benzamide]
< 100 nM	< 100 nM	NC(=O)c1ccc(-c2n[nH]c3ncc(-c4ccc5c(c4)CCC(N4CCCC4)CC5)cc23)cc1 (stereo not drawn) [Example 78, 4-(5-(7-(Pyrrolidin-1-yl)-6,7,8,9-tetrahydro-5H-benzo[7]annulen-2-yl)-1H-pyrazolo[3,4-b]pyridin-3-yl)benzamide]
< 100 nM	< 100 nM	Cc1cc(-c2n[nH]c3ncc(-c4ccc5c(c4)CCC(N4CCCC4)CC5)cc23)cc(F)c1C(N)=O (stereo not drawn) [Example 79, 2-Fluoro-6-methyl-4-(5-(7-(pyrrolidin-1-yl)-6,7,8,9-tetrahydro-5H-benzo[7]annulen-2-yl)-1H-pyrazolo[3,4-b]pyridin-3-yl)benzamide]
< 100 nM	< 100 nM	NC(=O)c1ccc(-c2n[nH]c3ncc(-c4ccc5c(c4)CCC(N4CCCC4)CC5)cc23)cc1C(F)(F)F (stereo not drawn) [Example 80, 4-(5-(7-(Pyrrolidin-1-yl)-6,7,8,9-tetrahydro-5H-benzo[7]annulen-2-yl)-1H-pyrazolo[3,4-b]pyridin-3-yl)-2-(trifluoromethyl)benzamide]
< 100 nM	< 100 nM	NC(=O)c1ccc(-c2n[nH]c3ncc(-c4ccc5c(c4)CCC(N4CCCC4)CC5)cc23)cc1F (stereo not drawn) [Example 81, 2-Fluoro-4-(5-(7-(pyrrolidin-1-yl)-6,7,8,9-tetrahydro-5H-benzo[7]annulen-2-yl)-1H-pyrazolo[3,4-b]pyridin-3-yl)benzamide]
